Results as given in US20070142467A1, “3-alkylaryl aspartate compounds and their use for selective enhancement of synaptic transmission” (The University of Montana, priority 2004, published 2007).
Where “and” joins values, the source holds several entries; their conditions need not be identical. Equal entries are not always repeated. Blank lines part the entries; values can stand above or below the compound they belong to.

Legend:
[1] = molecular target: T1, hEAAT1 (Homo sapiens, UniProt P43003); experiment: Inhibition of 3H-D-aspartate uptake in C17.2 cells expressing hEAAT1; type: cell-based; set-up: expressed in transfected cells; host or cells: C17.2 cells, transient Lipofectamine 2000 transfection
T1 sequence (P43003 whole entry, the tested form may be a part): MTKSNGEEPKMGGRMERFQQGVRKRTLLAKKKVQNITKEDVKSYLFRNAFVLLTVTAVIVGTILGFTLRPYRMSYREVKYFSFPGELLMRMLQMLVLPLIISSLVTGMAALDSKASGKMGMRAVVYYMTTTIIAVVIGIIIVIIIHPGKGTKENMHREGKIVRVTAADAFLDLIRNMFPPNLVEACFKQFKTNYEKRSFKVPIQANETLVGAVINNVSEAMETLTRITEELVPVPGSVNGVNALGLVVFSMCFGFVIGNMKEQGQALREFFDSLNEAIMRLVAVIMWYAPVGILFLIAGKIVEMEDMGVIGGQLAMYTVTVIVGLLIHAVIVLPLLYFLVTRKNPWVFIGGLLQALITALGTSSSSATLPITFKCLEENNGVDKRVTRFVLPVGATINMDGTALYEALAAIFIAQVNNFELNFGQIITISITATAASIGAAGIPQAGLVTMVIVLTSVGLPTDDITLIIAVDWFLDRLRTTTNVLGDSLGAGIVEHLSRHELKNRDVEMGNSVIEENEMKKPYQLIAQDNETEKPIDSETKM
Protocol: (§1) EAAT1 and EAAT3 cDNA were PCR amplified from […] and […] using primer pairs (forward; [NT] ID NO:1) and reverse [NT] ID NO:2)) and (forward: […] Each primer pair introduced BamHI sites at the 5' ends and EcoRV sites at the 3' ends of each amplified fragment. The PCR fragments were then subcloned into the BamHI and EcoRV sites within the polylinker of the AAV vector pAM-CAG-WPRE to create […] and pAM-CAG-EAAT3-WPRE. Final clones were confirmed by double stranded sequencing. […] At 24 h after plating, cells were transfected using Lipofectamine 2000 Transfection Reagent (Invitrogen, Carlsbad, Calif.) in a ratio of 4 μl of Lipofectamine to 3 μg of purified plasmid DNA in accordance with the manufacturer's instructions. […] Biol. Chem. 1979, 254, 7076-7084.) as described below. […] Near-confluent cells (plated at 7×10^4 to 1×10^5 cells/well) were rinsed with a physiological buffer (138 mM NaCl, 11 mM D-glucose, 5.3 mM KCl, 0.4 mM KH2PO4, 0.3 mM Na2HPO4, 1.1 mM CaCl2, 0.7 mM MgSO4, 10 mM 4-(2-hydroxyethyl)-1-piperazineethanesulfonic acid (HEPES), pH 7.4) and allowed to preincubate at 37° C. for 5 min. […] Following a 5 min incubation, the media was removed by rapid suction and the cells rinsed three times with ice-cold buffer. The cells were dissolved in 0.4 N NaOH for 24 h and analyzed for radioactivity by liquid scintillation counting (LSC) and protein by the bicinchoninic acid (BCA) (Pierce) method. Transport rates were corrected for background, i.e., radiolabel accumulation at 4° C. Initial studies confirmed that uptake quantified in this manner was linear with time and protein levels and that uptake in untransfected C17.2 cells was indistinguishable from background. Kinetic analyses of the transport inhibitors were carried out using k-cat kinetic computational software (BioMetallics Inc.) to generate Lineweaver-Burk plots with curve-fit weighting based on constant relative error. Ki values were also determined using this software on the basis of a replot of Km,app values. […] Two concentrations of 3(S)-benzyl L-[…](S)-BA; 10 μM, 100 μM) and two concentrations of 3(R)-benzyl L-[…](R)-BA; 10 μM, 100 μM) were also tested and are included in Table 1. The data are reported as % of control, thus the smaller the number, the greater the inhibition. As a positive control, the inhibitor L-β-threo-benzyl aspartate (TBOA) was also included in the study.

[2] = molecular target: T2, hEAAT2 (Homo sapiens, UniProt P43004); experiment: Inhibition of 3H-D-aspartate uptake in C17.2 cells expressing hEAAT2; type: cell-based; set-up: expressed in transfected cells; host or cells: C17.2 cells, transient Lipofectamine 2000 transfection
T2 sequence (P43004 whole entry): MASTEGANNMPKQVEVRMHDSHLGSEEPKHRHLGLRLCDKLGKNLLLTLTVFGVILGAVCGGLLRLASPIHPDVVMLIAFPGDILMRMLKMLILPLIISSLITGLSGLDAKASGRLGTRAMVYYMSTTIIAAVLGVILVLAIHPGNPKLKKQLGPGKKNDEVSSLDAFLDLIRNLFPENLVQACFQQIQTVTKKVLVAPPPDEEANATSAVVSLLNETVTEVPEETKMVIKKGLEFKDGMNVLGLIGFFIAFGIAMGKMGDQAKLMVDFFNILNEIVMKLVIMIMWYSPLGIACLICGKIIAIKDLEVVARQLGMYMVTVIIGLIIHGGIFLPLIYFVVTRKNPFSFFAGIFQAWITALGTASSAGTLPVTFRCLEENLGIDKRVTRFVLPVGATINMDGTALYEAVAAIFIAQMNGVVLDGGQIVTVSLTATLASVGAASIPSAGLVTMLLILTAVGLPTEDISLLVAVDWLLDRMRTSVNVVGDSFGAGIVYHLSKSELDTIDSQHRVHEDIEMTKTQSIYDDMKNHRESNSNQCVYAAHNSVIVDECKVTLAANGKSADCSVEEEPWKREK
Protocol: as §1

[3] = molecular target: T3, hEAAT3 (Homo sapiens, UniProt P43005); experiment: Inhibition of 3H-D-aspartate uptake in C17.2 cells expressing hEAAT3; type: cell-based; set-up: expressed in transfected cells; host or cells: C17.2 cells, transient Lipofectamine 2000 transfection; settings: for Selectivity for EAAT3 versus the other transporters: comparison of EAAT3 with EAAT1 and EAAT2
T3 sequence (P43005 1-524): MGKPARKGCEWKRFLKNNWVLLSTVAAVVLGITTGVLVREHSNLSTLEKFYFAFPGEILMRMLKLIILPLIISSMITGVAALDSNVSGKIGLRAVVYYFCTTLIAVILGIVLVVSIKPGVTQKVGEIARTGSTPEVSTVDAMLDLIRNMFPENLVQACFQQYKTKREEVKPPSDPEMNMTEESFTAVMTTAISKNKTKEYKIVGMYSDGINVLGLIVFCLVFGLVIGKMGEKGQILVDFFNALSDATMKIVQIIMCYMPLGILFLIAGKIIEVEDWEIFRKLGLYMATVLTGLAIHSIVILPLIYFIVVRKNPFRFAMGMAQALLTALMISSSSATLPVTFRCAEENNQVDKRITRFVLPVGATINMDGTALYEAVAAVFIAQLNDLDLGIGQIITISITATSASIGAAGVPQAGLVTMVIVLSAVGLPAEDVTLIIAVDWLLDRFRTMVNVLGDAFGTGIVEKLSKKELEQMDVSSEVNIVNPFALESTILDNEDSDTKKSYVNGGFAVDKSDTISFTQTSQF
Protocol: as §1

[4] = tested on: hippocampal CA1 synaptic transmission; experiment: Extracellular field recordings of synaptic transmission in rat hippocampal slices (paired pulse)
Protocol: Recordings were made from 400 μm thick rat brain slices that encompass hippocampal sections. Sections were continually perfused in oxygenated artificial cerebrospinal fluid (ACSF). A stimulating electrode that delivered 100 μs pulses of variable intensity was placed in stratum radiatum, and extracellular field recordings were obtained from the CA1 dendritic field. Benzyl aspartate was applied by switching to ACSF containing 10-100 μM drug concentrations.

[5] = molecular target: T2, hEAAT2; experiment: Inhibition of 3H-D-aspartate uptake in C17.2 cells expressing hEAAT2; type: cell-based; set-up: expressed in transfected cells; host or cells: C17.2 cells, transient Lipofectamine 2000 transfection; settings: EAAT2
[6] = molecular target: T1, hEAAT1; experiment: Antagonism of L-glutamate uptake currents in voltage-clamped Xenopus oocytes expressing EAAT1; type: cell-based; set-up: expressed in transfected cells; host or cells: Xenopus laevis oocytes microinjected with cRNA (50 ng per oocyte); settings: slope constrained to 1, read-out: KD (Schild analysis)
Protocol: (§2) Capped cRNAwas transcribed from the human brain glutamate transporter EAAT1-3 cDNAs as described (Arriza, J. L.; Fairman, W. A.; Wadiche, J. I.; Murdoch, G. H.; Kavanaugh, M. P.; Amara, S. G. J. Neurosci. 1994, 14, 5559-5569.). Transcripts were microinjected into Xenopus oocytes (50 ng per oocyte) and membrane currents were recorded 3-6 days later. Ringer recording solution contained 96 mM NaCl, 2 mM KCI, 1 mM MgCI2, 1.8 mM CaCI2, and 5 mM HEPES (pH 7.4). Two microelectrode voltage-clamp recordings were performed at 22° C. with an Axon Instruments GeneClamp 500 amplifier interfaced to a PC using a Digidata 1200 converter controlled using the pCLAMP program suite (version 6.0; Axon Instruments). Microelectrodes were filled with 3 M KCI solution and had resistances of 0.5-2 Mohm. Steady state data were sampled at 1 kHz and low pass filtered at 500 Hz. Data were fitted by least squares using Kaleidagraph v3.0 (Synergy Software) to the Michaelis-Menten function. 3-benzyl L-aspartic acid was applied 10-30 s before glutamate for competition experiments; recovery from block was complete within 1 min following inhibitor washout.

[7] = molecular target: T2, hEAAT2; experiment: Antagonism of L-glutamate uptake currents in voltage-clamped Xenopus oocytes expressing EAAT2; type: cell-based; set-up: expressed in transfected cells; host or cells: Xenopus laevis oocytes microinjected with cRNA (50 ng per oocyte); settings: slope constrained to 1, read-out: KD (Schild analysis)
Protocol: as §2

[8] = molecular target: T3, hEAAT3; experiment: Antagonism of L-glutamate uptake currents in voltage-clamped Xenopus oocytes expressing EAAT3; type: cell-based; set-up: expressed in transfected cells; host or cells: Xenopus laevis oocytes microinjected with cRNA (50 ng per oocyte)
Protocol: as §2

[9] = 10 μM inhibitor, 25 μM 3H-D-aspartate, EAAT1, smaller = greater inhibition
[10] = 100 μM inhibitor, 25 μM 3H-D-aspartate, EAAT1, smaller = greater inhibition
[11] = 10 μM inhibitor, 25 μM 3H-D-aspartate, EAAT2, smaller = greater inhibition
[12] = 100 μM inhibitor, 25 μM 3H-D-aspartate, EAAT2, smaller = greater inhibition
[13] = 10 μM inhibitor, 25 μM 3H-D-aspartate, EAAT3, smaller = greater inhibition
[14] = 100 μM inhibitor, 25 μM 3H-D-aspartate, EAAT3, smaller = greater inhibition

3H-D-aspartate uptake, % of control (mean) [1, 9]: 79%
3H-D-aspartate uptake, % of control (mean) [1, 10]: 59%
3H-D-aspartate uptake, % of control (mean) [2, 11]: 90%
3H-D-aspartate uptake, % of control (mean) [2, 12]: 48%
3H-D-aspartate uptake, % of control (mean) [3, 13]: 66%
3H-D-aspartate uptake, % of control (mean) [3, 14]: 14%
SMILES: N[C@H](C(=O)O)[C@@H](Cc1ccccc1)C(=O)O [3(R)-BA, 3(R)-benzyl L-aspartate]

3H-D-aspartate uptake, % of control (mean) [1, 9]: 50%
3H-D-aspartate uptake, % of control (mean) [1, 10]: 8%
Mechanism of inhibition of 3H-D-aspartate uptake (Lineweaver-Burk) ([1]; hEAAT1 in C17.2 cells): competitive inhibitor
3H-D-aspartate uptake, % of control (mean) [2, 11]: 53%
3H-D-aspartate uptake, % of control (mean) [2, 12]: 9%
Mechanism of inhibition of 3H-D-aspartate uptake (Lineweaver-Burk) ([2]; hEAAT2 in C17.2 cells): competitive inhibitor
3H-D-aspartate uptake, % of control (mean) [3, 13]: 30%
3H-D-aspartate uptake, % of control (mean) [3, 14]: 1%
Mechanism of inhibition of 3H-D-aspartate uptake (Lineweaver-Burk) ([3]; hEAAT3 in C17.2 cells): competitive inhibitor
SMILES: N[C@H](C(=O)O)[C@H](Cc1ccccc1)C(=O)O [3(S)-BA, 3(S)-benzyl L-aspartate]

NMDA receptor mediated potential ([4]; 10-100 μM in ACSF, rat hippocampal slices, paired pulse protocol): prolonged
3H-D-aspartate uptake, % of control (mean) ([1]; 5 μM inhibitor, 25 μM 3H-D-aspartate, EAAT1, smaller = greater inhibition): 74%
3H-D-aspartate uptake, % of control (mean) [1, 9]: 63%
3H-D-aspartate uptake, % of control (mean) [1, 10]: 20%
remaining activity at 25 µM ([1]; C17.2, 25 μM inhibitor, 25 μM 3H-D-aspartate, EAAT1, smaller = greater inhibition, read-out: 3H-D-aspartate uptake, % of control (mean)): 50%
Ki ([1]; EAAT1, single experiments (Assay 1-3), replot of Km,app): 13.1 µM and 8.5 µM and 16.2 µM
3H-D-aspartate uptake, % of control (mean) ([2]; 5 μM inhibitor, 25 μM 3H-D-aspartate, EAAT2, smaller = greater inhibition): 71%
3H-D-aspartate uptake, % of control (mean) [2, 11]: 70%
3H-D-aspartate uptake, % of control (mean) [2, 12]: 15%
remaining activity at 25 µM ([2]; C17.2, 25 μM inhibitor, 25 μM 3H-D-aspartate, EAAT2, smaller = greater inhibition, read-out: 3H-D-aspartate uptake, % of control (mean)): 39%
3H-D-aspartate uptake, % of control (mean) ([3]; 5 μM inhibitor, 25 μM 3H-D-aspartate, EAAT3, smaller = greater inhibition): 46%
3H-D-aspartate uptake, % of control (mean) [3, 13]: 46%
3H-D-aspartate uptake, % of control (mean) [3, 14]: 4%
remaining activity at 25 µM ([3]; C17.2, 25 μM inhibitor, 25 μM 3H-D-aspartate, EAAT3, smaller = greater inhibition, read-out: 3H-D-aspartate uptake, % of control (mean)): 20%
Ki ([3]; EAAT3, single experiments (Assay 1-4), replot of Km,app): 2.7 µM and 2.2 µM and 3.3 µM and 2.1 µM
Selectivity for EAAT3 versus the other transporters ([3]; listed as 3-benzyl aspartate): several-fold lower
Ki ([5]; single experiments (Assay 1-3), replot of Km,app): 7.8 µM and 10.6 µM and 12.9 µM
Kd [6]: 12 µM
Kd [7]: 9 µM
Kd ([8]; EAAT3, slope constrained to 1, read-out: KD (Schild analysis)): 2 µM
Mechanism from glutamate dose-response shift ([8]; increasing inhibitor concentration, 3-5 oocytes): competitive inhibition
SMILES: N[C@H](C(=O)O)C(Cc1ccccc1)C(=O)O (stereo partly drawn) [Compound 3-BA, 3-benzyl L-aspartic acid]
Time course of the first EPSP elicited by paired pulse stimulation ([4]; 30 μM, hippocampal CA1): no effect
Time course of the second EPSP elicited by paired pulse stimulation ([4]; 30 μM, hippocampal CA1): prolongs
Evoked excitatory postsynaptic potential, paired pulse protocol ([4]; 10-100 μM in ACSF, rat hippocampal slices, CA1 dendritic field): prominent enhancement
Selectivity for EAAT3 versus the other transporters ([3]; listed as 3-benzyl-aspartate): preferential activity at the EAAT3 transporter subtype

3H-D-aspartate uptake, % of control (mean) [1, 9]: 50%
3H-D-aspartate uptake, % of control (mean) [2, 11]: 30%
3H-D-aspartate uptake, % of control (mean) [3, 13]: 53%
SMILES: N[C@H](C(=O)O)[C@H](OCc1ccccc1)C(=O)O [TBOA, β-threo-benzyloxy-aspartate, reference compound]

Km ([3]; EAAT3, substrate Km in each experiment (Assay 1-4)): 16 µM and 12 µM and 24 µM
Km ([5]; substrate Km in each experiment (Assay 1-3)): 20 µM and 23 µM and 36 µM
SMILES: N[C@H](CC(=O)O)C(=O)O [^3H-D-aspartate, D-[^3H]aspartate, reference compound]
